Experiments:
Type in all cases: in vivo
Set-up in all cases: key: compounds were considered to be active when, at a concentration of 500 ppm or less, they had an activity on the harmful organisms of 50% or more
[1] = tested on: Diabrotica undecimpunctata; assay: Example C: corn rootworm eggs with maize corn, mortality; settings: 500 ppm or less; 4-5-day-old eggs; after 6 days
Spodoptera littoralis [2] = assay: Example E: cotton leaves sprayed, Egyptian cotton leafworm L2 larvae mortality; settings: 500 ppm or less, after 4 days
Description: Leaves of cotton plants were placed into a Petri dish, populated with 10 L2 larvae of the Egyptian cotton leafworm (Spodoptera littoralis) and sprayed with an aqueous solution of the formulated compound to be examined. After 4 days of storage at about 23° C., the effect of the compound on the larvae was determined (mortality). The compounds of the following examples were active: Nos. 18, 70, 1007, 1008, 1009, 1036 und 1038.

Carpocapsa pomonella = assay: Example D: dipped apples, codling moth L1 larvae mortality; settings: 500 ppm or less, after 14 days
Description: Apples were dipped into an aqueous solution of the formulated compound to be examined. The apples were then populated with 10 L1 larvae of the codling moth (Carpocapsa pomonella). After 14 days of storage at about 25° C., the effect of the compound on the larvae was determined (mortality). The compounds of the following examples were active: Nos. 14, 15, 17, 18, 70, 1007, 1008, 1009, 1036, 1038, 197.

Heliothis virescens [3] = assay: Example B: tobacco budworm eggs on filter paper/insect diet, mortality; settings: 500 ppm or less; 24-hour-old eggs dipped, diet treated; after 6 days
Aphis fabae = assay: Example F: field bean dip, black bean aphid mortality; settings: 500 ppm or less; plants and aphids dipped; after 3 and 6 days
Description: Germinated field bean seeds (Vicia faba) with radicles were transferred into brown glass bottles filled with tap water and subsequently populated with approximately 100 black bean aphids (Aphis fabae). Plants and aphids were then dipped for 5 seconds into an aqueous solution of the formulated compound to be examined. After the solution had run off, plants and animals were stored in a climatized chamber (16 hours of light/day, 25° C., 40–60% relative atmospheric humidity). After 3 and 6 days of storage, the effect of the compound on the aphids was determined (mortality). The compounds of the following examples were active: 30, 43, 228, 262, 291.

Nilaparvata lugens = assay: Example A: rice leaf dip, leafhopper larvae mortality; settings: 500 ppm or less; L3 larvae on dipped rice plants; after 6 days
Description: The leaves of 12 rice plants having a stem length of 8 cm were dipped for 5 seconds into an aqueous solution of the formulated compound to be examined. After the solution had run off, the rice plants treated in this manner were placed into a Petri dish and populated with about 20 larvae (L3 stage) of the rice leafhopper species Nilaparvata lugens. The Petri dish was closed and then stored in a climatized chamber (16 hours of light/day, 25° C., 40–60% relative atmospheric humidity). After 6 days of storage, the mortality among the leafhopper larvae was determined. The compounds of the following examples were active: Nos. 29, 32, 42, 43, 51, 70, 84, 1002, 1004, 1005, 1040, 180, 184, 193, 197, 203, 209, 1059, 264, 265, 1066.

[4] = tested on: Diabrotica undecimpunctata; assay: Example AC: treated soil, southern corn rootworm eggs mortality; settings: 500 ppm or less, eggs added after 0d, 21d and 42d, after 2 weeks
Description: An aqueous solution of the formulated compound to be examined was mixed with soil. After 0d, 21d and 42d, eggs of the southern corn rootworm (Diabrotica undecimpunctata) were placed together with 2 pre-swollen maize corns into a dish, covered with the treated soil and moisted with 10 ml of water. Soil and eggs were placed in a greenhouse (23° C., 60% relative atmosphere humidity). After 2 weeks of storage, the effect of the compound on the eggs and any larvae hatched therefrom was determined (mortality). The following examples were active: 70, 60, 197, 204.

Spodoptera exigua [5] = assay: Example S: treated L2 larvae and insect diet, sugar beet army worm mortality; settings: 500 ppm or less, after 6 days
Description: A Petri dish whose bottom was covered with filter paper and which contains about 5 ml of insect diet is prepared. Five L2 larvae of sugar beet army worm (Spodoptera exigua) were counted into a small beaker. 200 μl of an aqueous solution of the formulated compound to be examined were pipetted into the beaker. The treated larvae were then poured into the Petri dish and a further 200 μl of the aqueous solution were distributed over the insect diet. The Petri dish was closed and then stored at 25° C. in a climatized chamber. After 6 days of storage, the mortality among the larvae was determined. The following examples were active: 1036, 175, 184, 1051, 1054, 1055, 234, 1057, 1059, 1060, 1063, 243, 245, 251, 257, 259, 266, 1065, 1067, 290, 291.

Aedes aegypti = assay: Example AG: microtiter plate, yellow fever mosquito larvicidal activity; settings: 500 ppm or less, after 3 days
Meloidogyne incognita = assay: Example H: root gall nematode larvae immobilization (contact activity); settings: 500 ppm or less; 2nd stage larvae; 6 days permanent exposure
Description: In a glass vessel, an aqueous solution of the formulated compound to be examined was added to about 3000 freshly hatched active (mobile) larvae (2nd development stage) of the root gall nematode (Meloidogyne incognita) (final volume 20 ml). After 6 days of permanent exposure of the nematode larvae, the percentage of the individual larvae immobilized by the activity of the compound was determined in comparison to the untreated controls (contact activity). The compounds of the following examples were active: 39, 52, 159, 161, 162, 163, 164, 165, 1045, 1046, 1047, 179, 183, 187, 1048, 298, 206, 208, 227, 230, 1061, 237, 238, 245, 250, 255, 256, 260, 268, 269, 274, 275, 288, 290.

[6] = tested on: Trialeurodes vaporariorum; assay: Example AD: bush beans sprayed, white fly larvicidal action; settings: 500 ppm or less; bush beans sprayed after hatching; after 11 days
Description: For oviposition, bush beans (Phaseolus vulgaris) were populated for 48 hours with adults of the white fly (Trialeurodes vaporariorum). After the larvae had hatched, the plants were sprayed to run-off point with an aqueous solution of the formulated compound to be examined. After 11 days, the larvicidal action was determined. The following examples were active: 1036, 70, 60, 1040, 197.

Spodoptera littoralis [7] = assay: Example G: treated L2 larvae and insect diet, Egyptian cotton leafworm mortality; settings: 500 ppm or less, after 6 days
Description: A Petri dish whose bottom was covered with filter paper and which contained about 5 ml of insect diet is prepared. Five L2 larvae of the Egyptian cotton leafworm (Spodoptera littoralis) were counted into a small beaker. 200 μl of an aqueous solution of the formulated preparation to be examined were pipetted into the beaker. The treated larvae were then poured into the Petri dish, and a further 200 μl of the aqueous solution were distributed over the insect diet. The Petri dish was closed and then stored at about 25° C. in a climatized chamber. After 6 days of storage, the effect of the compound on the larvae was determined (mortality). The compounds of the following examples were active: 29, 70, 60, 159, 1005, 1040, 1042, 1044, 1045, 1046, 1047.

Spodoptera exigua [8] = assay: Example Y: cotton plants sprayed, cut leaves, sugar beet armyworm mortality; settings: 500 ppm or less, leaves cut after drying, L2 larvae, after 4 days
Description: Cotton plants were sprayed with an aqueous solution of the formulated compound to be examined. After drying, leaves were cut off, placed into a Petri dish and populated with 5 L2 larvae of the sugar beet armyworm (Spodoptera exigua). After 4 days of storage at about 23° C., the mortality among the larvae was determined. The following examples were active: 1036, 70, 60, 1047, 197.

Spodoptera exigua [9] = assay: Example Z: cotton leaves with larvae sprayed, sugar beet armyworm mortality; settings: 500 ppm or less; cotton leaves populated then sprayed; L2 larvae; after 4 days
Description: Cotton leaves were populated with 5 L2 larvae of the sugar beet armyworm (Spodoptera exigua) and then sprayed with an aqueous solution of the formulated compound to be examined. After 4 days of storage at about 23° C., the mortality among the larvae was determined. The following examples were active: 1036, 70, 60, 1047, 197.

[10] = tested on: Leptinotarsa decemlineata; assay: Example L: potato leaves and larvae sprayed, Colorado beetle mortality; settings: 500 ppm or less, after 4 days
Description: Potato leaves were populated with larvae of the Colorado beetle (Leptinotarsa decemlineata). Leaves and larvae were then sprayed with an aqueous solution of the formulated compound to be examined. After 4 days of storage at about 25° C., the effect of the compound on the larvae was determined (mortality). The compounds of the following examples were active: 60, 70, 1002, 1004, 1005, 1036, 1047, 197.

Heliothis virescens [11] = assay: Example AB: cotton leaves with larvae sprayed, tobacco budworm mortality; settings: 500 ppm or less; cotton leaves with L2 larvae sprayed; after 4 days
Description: Cotton leaves were placed into a Petri dish, populated with 5 L2 larvae of the American tobacco budworm (Heliothis virescens) and sprayed with an aqueous solution of the formulated compound to be examined. After 4 days of storage at about 25° C., the mortality among the larvae was determined. The following examples were active: 70, 1047, 197.

CCC1CCCN(CC#Cc2ccc(Cl)c(C(F)(F)F)c2)C1 (centres unmarked) [Example 18]
active: effect on the eggs and hatched larvae (mortality) [1] | effect on the larvae (mortality) (Spodoptera littoralis [2]) | effect on the larvae (mortality) (Carpocapsa pomonella) | effect on the eggs and hatched larvae (mortality) (Heliothis virescens [3])

CC1CCN(CC#Cc2cc(C(F)(F)F)ccc2Cl)CC1 [Example 30]
active: effect on the aphids (mortality) (Aphis fabae) | effect on the eggs and hatched larvae (mortality) (Heliothis virescens [3])

C[C@@H]1C[C@H](C)CN(CC#Cc2cc(C(F)(F)F)cc(C(F)(F)F)c2)C1 [Example 43]
active: effect on the eggs and hatched larvae (mortality) [1] | mortality among the leafhopper larvae (Nilaparvata lugens) | effect on the aphids (mortality) (Aphis fabae)

FC(F)(F)c1cc(C#CCN2CCC(C(F)(F)F)CC2)nc(C(F)(F)F)c1 [Example 204]
active: effect on the eggs and hatched larvae (mortality) [1] | effect on the eggs and hatched larvae (mortality) [4] | effect on the eggs and hatched larvae (mortality) (Heliothis virescens [3])

CC1CCN(CC#Cc2ccc(-c3ccc(F)cc3)c(F)c2)CC1 [Example 228]
active: effect on the eggs and hatched larvae (mortality) [1] | effect on the aphids (mortality) (Aphis fabae)

CC1CCN(CC#Cc2ccc(C#N)c(C(F)(F)F)c2)CC1 [Example 290]
active: mortality among the larvae (Spodoptera exigua [5]) | larvicidal activity (Aedes aegypti) | effect on the eggs and hatched larvae (mortality) [1] | percentage of larvae immobilized (contact activity) (Meloidogyne incognita) | effect on the eggs and hatched larvae (mortality) (Heliothis virescens [3])

CC1CCN(CC#Cc2ccc(C(F)(F)F)c(Cl)c2)CC1.O=C(O)/C=C/C(=O)O [Example 1008]
active: effect on the larvae (mortality) (Spodoptera littoralis [2]) | effect on the larvae (mortality) (Carpocapsa pomonella)

CC1CCN(CC#Cc2cc([N+](=O)[O-])cc(C(F)(F)F)c2)CC1.Cl [Example 1038]
active: effect on the eggs and hatched larvae (mortality) [1] | effect on the larvae (mortality) (Spodoptera littoralis [2]) | effect on the larvae (mortality) (Carpocapsa pomonella) | effect on the eggs and hatched larvae (mortality) (Heliothis virescens [3])

CC1CCN(CC#Cc2ccc(C(F)(F)F)c(Cl)c2)CC1.CCCCCCCCC(=O)O [Example 1040]
active: effect on the eggs and hatched larvae (mortality) [1] | mortality among the leafhopper larvae (Nilaparvata lugens) | larvicidal action [6] | effect on the larvae (mortality) (Spodoptera littoralis [7]) | effect on the eggs and hatched larvae (mortality) (Heliothis virescens [3])

CC1CCN(CC#Cc2cc(C(F)(F)F)cc(C(F)(F)F)n2)CC1.Cl [Example 1047]
active: mortality among the larvae (Spodoptera exigua [8]) | mortality among the larvae (Spodoptera exigua [9]) | effect on the larvae (mortality) [10] | effect on the eggs and hatched larvae (mortality) [1] | mortality among the larvae (Heliothis virescens [11]) | percentage of larvae immobilized (contact activity) (Meloidogyne incognita) | effect on the larvae (mortality) (Spodoptera littoralis [7]) | effect on the eggs and hatched larvae (mortality) (Heliothis virescens [3])
